From ChEMBL document CHEMBL3297657, “Synthesis and antitumor activities of novel α-aminophosphonate derivatives containing an alizarin moiety” (Eur J Med Chem, 2014)
Active and inactive are the calls of the source. The calls are words filed in the database; no cut-off is given here.

Key:
NCI-H460 [1] = test: Cell cycle arrest in human NCI-H460 cells assessed as accumulation at S phase at 8 uM after 48 hrs by Rnase A/propidium iodide staining-based flow cytometry (reference value: 19.41%); type: functional
NCI-H460 [2] = test: Cell cycle arrest in human NCI-H460 cells assessed as accumulation at S phase at 8 uM after 24 hrs by Rnase A/propidium iodide staining-based flow cytometry (reference value: 19.41%); type: functional
NCI-H460 [3] = test: Induction of apoptosis in human NCI-H460 cells assessed as change in mitochondrial membrane potential at 5 to 20 uM after 24 hrs by JC-1 staining-based fluorescence microscopy relative to control; type: functional, cell-based
NCI-H460 [4] = test: Induction of apoptosis in human NCI-H460 cells assessed as necrotic cells at 20 uM after 24 hrs by Annexin V/propidium iodide staining-based flow cytometry (reference value: 6.9%); type: functional
NCI-H460 [5] = test: Induction of apoptosis in human NCI-H460 cells assessed as upregulation of cytochrome C mRNA expression after 24 hrs by qRT-PCR analysis; type: functional, cell-based

| SMILES | Activity (NCI-H460 [1]) [%] | Activity (NCI-H460 [2]) [%] | Activity (NCI-H460 [3]) | Activity (NCI-H460 [4]) [%] | Activity (NCI-H460 [5]) |
| --- | --- | --- | --- | --- | --- |
| CCOP(=O)(OCC)C(NC(=O)C(C)Oc1ccc2c(c1O)C(=O)c1ccccc1C2=O)c1ccccc1F (stereo not given) | 10.87 | 16.3 | Active | 1.4 | Dose-dependent effect |
| CCOP(=O)(OCC)C(NC(=O)C(C)Oc1ccc2c(c1O)C(=O)c1ccccc1C2=O)c1ccccc1OC (stereo not given) | 8.87 | 13.09 | Active | 12.9 | Dose-dependent effect |
| CCOP(=O)(OCC)C(NC(=O)C(C)Oc1ccc2c(c1O)C(=O)c1ccccc1C2=O)c1cccc2ccccc12 (stereo not given) | 0.41 | 1.11 | Active | 1.4 | Dose-dependent effect |
